# Measurements from US10167276B2, “Compounds and methods for inhibiting JAK” (Dizal (Jiangsu) Pharmaceutical Co., Ltd., priority 2015, dated 2019).
# System: STAT3 phosphorylation in NCI-H1975 cells
# Experiment: Cellular pSTAT3 assay in NCI-H1975 cells
# Assay type: cell-based
# Conditions: Homo sapiens, 2 hours with compound
# Experimental: NCI-H1975 cells were plated onto Costar #3701 96 or 384 well tissue-culture treated plates at 5,000 cells/well in 30 uL medium (RPMI, 10% FBS, supplemented with L-glutamine) and incubated overnight at 37° C. in 5% CO2. Phospho STAT3 signal was quantitated utilizing Cell Signaling Technology #7146B Pathscan […] STAT3 antibody pair kit, following manufacturer's instructions.
# Cells were dosed with compound and incubated at 37° C. in 5% CO2 for 2 hours, after which medium and compound were aspirated and cells lysed with 35 uL cold 1×Cell Signaling Lysis buffer and chilled at 4° C. for 1-2 hours. Lysate was incubated on STAT3 capture plates at 4° C. overnight, washed 3× with Tris-Buffered Saline with 0.05% Tween® 20 (TBST), then […] STAT3 detection antibody was applied for 2 hours. Following washing with TBST (3×), HRP-secondary antibody was applied for 2 hours. After additional washing, signal was detected using TMB and Stop solution and read at 450 nm using Tecan Infinite M100.
structure (smiles),measurement,value
"COc1nn(C)cc1Nc1nccc(-c2c[nH]c3c(NC(=O)[C@@H](C)N4CCN(C)C[C@@H]4C)cccc23)n1 [Example 1, (2R)-2-[(2S)-2,4-dimethylpiperazin-1-yl]-N-(3-{2-[(3-methoxy-1-methyl-1H-pyrazol-4-yl)amino]pyrimidin-4-yl}-1H-indol-7-yl)propanamide]",IC50,643 nM
"COc1nn(C)cc1Nc1ncc(F)c(-c2c[nH]c3c(NC(=O)[C@@H](C)N4CCN(C)[C@H](C)C4)cccc23)n1 [Example 2, (2R)-2-[(3R)-3,4-dimethylpiperazin-1-yl]-N-(3-{5-fluoro-2-[(3-methoxy-1-methyl-1H-pyrazol-4-yl)amino]pyrimidin-4-yl}-1H-indol-7-yl)propanamide]",IC50,227 nM
"COCCN1CCN([C@H](C)C(=O)Nc2cccc3c(-c4nc(Nc5cn(C)nc5OC)ncc4F)c[nH]c23)CC1 [Example 3, (2R)-N-(3-{5-fluoro-[(3-methoxy-1-methyl-1H-pyrazol-4-yl)amino]pyrimidin-4-yl}-1H-indol-7-yl)-2-[4-(2-methoxyethyl)piperazin-1-yl]propanamide]",IC50,302 nM
"CCN1CCN([C@H](C)C(=O)Nc2cccc3c(-c4nc(Nc5cn(C)nc5OC)ncc4F)c[nH]c23)CC1 [Example 4, (2R)-2-(4-ethylpiperazin-1-yl)-N-(3-{5-fluoro-2-[(3-methoxy-1-methyl-1H-pyrazol-4-yl)amino]pyrimidin-4-yl}-1H-indol-7-yl)propanamide]",IC50,98.6 nM
"COc1nn(C)cc1Nc1ncc(F)c(-c2c[nH]c3c(NC(=O)[C@@H](C)N4CCN(C)[C@@H](C)C4)cccc23)n1 [Example 5, (2R)-2-[(3S)-3,4-dimethylpiperazin-1-yl]-N-(3-{5-fluoro-2-[(3-methoxy-1-methyl-1H-pyrazol-4-yl)amino]pyrimidin-4-yl}-1H-indol-7-yl)propanamide]",IC50,87.2 nM
"COc1nn(C)cc1Nc1ncc(F)c(-c2c[nH]c3c(NC(=O)[C@@H](C)N4CCN(C)C[C@H]4C)cccc23)n1 [Example 6, (2R)-2-[(2R)-2,4-dimethylpiperazin-1-yl]-N-(3-{5-fluoro-2-[(3-methoxy-1-methyl-1H-pyrazol-4-yl)amino]pyrimidin-4-yl}-1H-indol-7-yl)propanamide]",IC50,111 nM
"COc1nn(C)cc1Nc1ncc(F)c(-c2c[nH]c3c(NC(=O)[C@@H](C)N4CCN(C)C[C@@H]4C)cccc23)n1 [Example 7a, (2R)-2-[(3S)-2,4-dimethylpiperazin-1-yl]-N-(3-{5-fluoro-2-[(3-methoxy-1-methyl-1H-pyrazol-4-yl)amino]pyrimidin-4-yl}-1H-indol-7-yl)propanamide]",IC50,509 nM
"COc1nn(C)cc1Nc1ncc(F)c(-c2c[nH]c3c(NC(=O)[C@H](C)N4CCN(C)C[C@@H]4C)cccc23)n1 [Example 7b, (2S)-2-[(3S)-2,4-dimethylpiperazin-1-yl]-N-(3-{5-fluoro-2-[(3-methoxy-1-methyl-1H-pyrazol-4-yl)amino]pyrimidin-4-yl}-1H-indol-7-yl)propanamide]",IC50,> 3000 nM
"CCOc1nn(C)cc1Nc1ncc(F)c(-c2c[nH]c3c(NC(=O)[C@@H](C)N4CCN(CC)CC4)cccc23)n1 [Example 8, (2R)-N-(3-{2[(3-ethoxy-1-methyl-1H-pyrazol-4-yl)amino]-5-fluoropyrimidin-4-yl}-1H-indol-7-yl)-2-(4-ethylpiperazin-1-yl)propanamide]",IC50,191 nM
"CCOc1nn(C)cc1Nc1ncc(F)c(-c2c[nH]c3c(NC(=O)[C@@H](C)N4CCN(CCOC)CC4)cccc23)n1 [Example 9, (2R)-N-(3-{2-[(3-ethoxy-1-methyl-1H-pyrazol-4-yl)amino]-5-fluoropyrimidin-4-yl}-1H-indol-7-yl)-2-[4-(2-methoxyethyl)piperazin-1-yl]propanamide]",IC50,594 nM
"CCOc1nn(C)cc1Nc1ncc(F)c(-c2c[nH]c3c(NC(=O)[C@@H](C)N4CCN(C)C[C@@H]4C)cccc23)n1 [Example 10a, (2R)-2-[(2S)-2,4-dimethylpiperazin-1-yl]-N-(3-{2-[(3-ethoxy-1-methyl-1H-pyrazol-4-yl)amino]-5-fluoropyrimidin-4-yl}-1H-indol-7-yl)propanamide]",IC50,531 nM
"CCOc1nn(C)cc1Nc1ncc(F)c(-c2c[nH]c3c(NC(=O)[C@H](C)N4CCN(C)C[C@@H]4C)cccc23)n1 [Example 10b, (2S)-2-[(2S)-2,4-dimethylpiperazin-1-yl]-N-(3-{2-[(3-ethoxy-1-methyl-1H-pyrazol-4-yl)amino]-5-fluoropyrimidin-4-yl}-1H-indol-7-yl)propanamide]",IC50,> 3000 nM
"CCOc1nn(C)cc1Nc1ncc(F)c(-c2c[nH]c3c(NC(=O)[C@@H](C)N4CCN(C)[C@@H](C)C4)cccc23)n1 [Example 11a, (2R)-2-[(3S)-3,4-dimethylpiperazin-1-yl]-N-(3-{2-[(3-ethoxy-1-methyl-1H-pyrazol-4-yl)amino]-5-fluoropyrimidin-4-yl}-1H-indol-7-yl)propanamide]",IC50,209 nM
"CCOc1nn(C)cc1Nc1ncc(F)c(-c2c[nH]c3c(NC(=O)[C@H](C)N4CCN(C)[C@@H](C)C4)cccc23)n1 [Example 11b, (2S)-2-[(3S)-3,4-dimethylpiperazin-1-yl]-N-(3-{2-[(3-ethoxy-1-methyl-1H-pyrazol-4-yl)amino]-5-fluoropyrimidin-4-yl}-1H-indol-7-yl)propanamide]",IC50,2280 nM
"CCOc1nn(C)cc1Nc1ncc(F)c(-c2c[nH]c3c(NC(=O)[C@@H](C)N4CCN(C)C[C@H]4C)cccc23)n1 [Example 12, (2R)-2-[(2R)-2,4-dimethylpiperazin-1-yl]-N-(3-{2-[(3-ethoxy-1-methyl-1H-pyrazol-4-yl)amino]-5-fluoropyrimidin-4-yl}-1H-indol-7-yl)propanamide]",IC50,246 nM
"CCOc1nn(C)cc1Nc1ncc(F)c(-c2c[nH]c3c(NC(=O)[C@@H](C)N4CCN(C)[C@H](C)C4)cccc23)n1 [Example 13, (2R)-2-[(3R)-3,4-dimethylpiperazin-1-yl]-N-(3-{2-[(3-ethoxy-1-methyl-1H-pyrazol-4-yl)amino]-5-fluoropyrimidin-4-yl}-1H-indol-7-yl)propanamide]",IC50,222 nM
"COc1nn(C)cc1Nc1ncc(C)c(-c2c[nH]c3c(NC(=O)[C@@H](C)N4CCN(C)[C@@H](C)C4)cccc23)n1 [Example 14, (2R)-2-[(3S)-3,4-dimethylpiperazin-1-yl]-N-(3-{2-[(3-methoxy-1-methyl-1H-pyrazol-4-yl)amino]-5-methylpyrimidin-4-yl}-1H-indol-7-yl)propanamide]",IC50,70.3 nM
"COc1nn(C)cc1Nc1ncc(C)c(-c2c[nH]c3c(NC(=O)[C@@H](C)N4CCN(CCO)CC4)cccc23)n1 [Example 15, (2R)-2-[4-(2-hydroxyethyl)piperazin-1-yl]-N-(3-{2-[(3-methoxy-1-methyl-1H-pyrazol-4-yl)amino]-5-methylpyrimidin-4-yl}-1H-indol-7-yl)propanamide]",IC50,131 nM
"CCN1CCN([C@H](C)C(=O)Nc2cccc3c(-c4nc(Nc5cn(C)nc5OC)ncc4C)c[nH]c23)CC1 [Example 16, (2R)-2-(4-ethylpiperazin-1-yl)-N-(3-{2-[(3-methoxy-1-methyl-1H-pyrazol-4-yl)amino]-5-methylpyrimidin-4-yl}-1H-indol-7-yl)propanamide]",IC50,105 nM
"COCCN1CCN([C@H](C)C(=O)Nc2cccc3c(-c4nc(Nc5cn(C)nc5OC)ncc4C)c[nH]c23)CC1 [Example 17, (2R)-2-[4-(2-methoxyethyl)piperazin-1-yl]-N-(3-{2-[(3-methoxy-1-methyl-1H-pyrazol-4-yl)amino]-5-methylpyrimidin-4-yl}-1H-indol-7-yl)propanamide]",IC50,229 nM
"COc1nn(C)cc1Nc1ncc(C)c(-c2c[nH]c3c(NC(=O)[C@@H](C)N4CCN(C)[C@H](C)C4)cccc23)n1 [Example 18, (2R)-2-[(3R)-3,4-dimethylpiperazin-1-yl]-N-(3-{2-[(3-methoxy-1-methyl-1H-pyrazol-4-yl)amino]-5-methylpyrimidin-4-yl}-1H-indol-7-yl)propanamide]",IC50,175 nM
"COc1nn(C)cc1Nc1ncc(C)c(-c2c[nH]c3c(NC(=O)[C@@H](C)N4CCN(C)C[C@@H]4C)cccc23)n1 [Example 19, (2R)-2-[(2S)-2,4-dimethylpiperazin-1-yl]-N-(3-{2-[(3-methoxy-1-methyl-1H-pyrazol-4-yl)amino]-5-methylpyrimidin-4-yl}-1H-indol-7-yl)propanamide]",IC50,470 nM
"CCOc1nn(C)cc1Nc1ncc(C)c(-c2c[nH]c3c(NC(=O)[C@@H](C)N4CCN(CC)CC4)cccc23)n1 [Example 20, (2R)-N-(3-{2-[(3-ethoxy-1-methyl-1H-pyrazol-4-yl)amino]-5-methylpyrimidin-4-yl}-1H-indol-7-yl)-2-(4-ethylpiperazin-1-yl)propanamide]",IC50,184 nM
"CCOc1nn(C)cc1Nc1ncc(C)c(-c2c[nH]c3c(NC(=O)[C@@H](C)N4CCN(CCOC)CC4)cccc23)n1 [Example 21, (2R)-N-(3-{2-[(3-ethoxy-1-methyl-1H-pyrazol-4-yl)amino]-5-methylpyrimidin-4-yl}-1H-indol-7-yl)-2-[4-(2-methoxyethyl)piperazin-1-yl]propanamide]",IC50,703 nM
"CCOc1nn(C)cc1Nc1ncc(C)c(-c2c[nH]c3c(NC(=O)[C@@H](C)N4CCN(C)C[C@@H]4C)cccc23)n1 [Example 22, (2R)-2-[(2S)-2,4-dimethylpiperazin-1-yl]-N-(3-{2-[(3-ethoxy-1-methyl-1H-pyrazol-4-yl)amino]-5-methylpyrimidin-4-yl}-1H-indol-7-yl)propanamide]",IC50,550 nM
